Measurements reported in US11091476B2, “Protein kinase inhibitors, preparation method and medical use thereof” (Gan & Lee Pharmaceuticals, priority 2015, dated 2021).

Tests used:
[1] = system: Human breast cancer cells MDA-MB-231; test: Inhibition of proliferation of human breast cancer cell MDA-MB-231 (DAPI, In Cell Analyzer); type: cell-based; settings: for IC50: Homo sapiens, MDA-MB-231, 72 hours incubation, read-out: IC50, proliferation of human breast cancer cell MDB-MA-231; for Inhibitory activity on proliferation of the MDA-MB-231 cell line, in words: experimental conclusion
Procedure: 200 μl of medium containing 0.2% DMSO (dimethylsulfoxide) was added into B2 to B10 of a 96-well plate; 300 μl of the above solution was added into B1; and • c. 100 μl of solution was taken from well B1, added into B2, and mixed well; then 100 μl of the resulting solution was taken and added into B3, and dilution was carried out in sequence to B9, so as to obtain standard solutions diluted by 3-fold sequentially. • (2) Preparation of Test Compound Solutions • a. […] 200 μl of medium containing 0.2% DMSO (dimethylsulfoxide) was added into H2 to H10 of the 96-well plate; and 300 μl of the above solution was added into H1; and • c. 100 μl of solution was taken from well H1, added into H2, and mixed well; then 100 μl of the resulting solution was taken and added into H3, and dilution was carried out in sequence to […], so as to obtain test compound solutions diluted by 3-fold sequentially.
2.3 Experimental Process: • 2.3.1: MDA-MB-231 cells were inoculated into a 96-well cell plate with black transparent bottom at 4000 cells/100 μl/well, and cultured overnight at 37° C.; • 2.3.2: The above samples were added at 100 μl/well to a culture plate inoculated with cells, gently patted to mix well, and incubated at 37° C. for 72 hours; • 2.3.3: Fixation: the cell plate was taken out, the medium was removed, and 50 μl of 4% paraformaldehyde was added per well to fix for 10 minutes; • 2.3.4: 50 μl of 0.1M glycine was added to neutralize for 10 minutes; • 2.3.5: 1×PBS (phosphate buffer pH 7.2) was used to wash twice; • 2.3.6: Permeabilization: 50 μl of 0.2% TRITON-X®100 (Triton) was added per well, and permeabilization was carried out at room temperature for 10 minutes; • 2.3.7: 1×PBS (Phosphate buffer pH 7.2) was used to wash twice; • 2.3.8: 5 mg/mL DAPI stock solution was diluted at a ratio of 1:5000 (final concentration of 1 μg/ml), and staining was performed at room temperature for 20 minutes; • 2.3.9: 1×PBS (Phosphate buffer pH 7.2) was used to wash three times; and • 2.3.10: Scanning and analysis were performed by an IN cell analyzer 2200.
(§1) The inhibition rate of each compound at each concentration point was calculated by the formula as follows and curve fitting was performed by GraphPad Prism 5 software to obtain the IC50 value.

[2] = Pharmacokinetic determination in mouse (LC/MS/MS of plasma); type: in vivo, ICR mice; settings: for AUC(0-t): read-out: Area under curve AUC0-t; for AUC(0-inf): read-out: Area under curve AUC0-∞; for half-life: read-out: Half life T1/2 (converted); for MRT: read-out: Retention time MRT
Procedure: Pharmacokinetic Determination of Representative Compounds of this Disclosure in Mouse
(§2) The ICR mice were used as the test animals, and the concentrations of the drugs in the plasma of mice at different time points after intragastric administration and intravenous administration of the representative compound of the present disclosure were determined by LC/MS/MS, so as to study the pharmacokinetic behavior of the compounds of the disclosure in mice and evaluate the pharmacokinetic characteristics thereof.
An appropriate amount of sample was weighed, and added with 0.1% hydroxyethyl cellulose/0.5% TWEEN®80 to a final volume to give 0.5 mg/ml solution for intragastric administration.
Whole blood was anticoagulated with EDTA-K2 and centrifuged, the supernatant was removed, and the residue was frozen at −20° C. until sample analysis. […] The plasma samples were treated in the same manner as that employed for plasma samples of the intragastrically administered group. Plasma samples were analyzed by LC-MS/MS, sample pretreatment was performed using protein precipitation method, the linear range of sample analysis was 1-2000 ng/ml, and the lowest quantification limit was 1 ng/ml.

[3] = Rat pharmacokinetic determination (LC/MS/MS of plasma); type: in vivo, SD rats; settings: for bioavailability: oral, intragastric 5 mg/kg vs intravenous 2 mg/kg; for AUC(0-inf): read-out: Area under curve AUC0-∞; for AUC(0-t): read-out: Area under curve AUC0-t; for Vd: read-out: Apparent volume of distribution VZ; for clearance: read-out: Clearance rate Cl; for MRT: read-out: Retention time MRT; for half-life: read-out: Half life T1/2 (converted)
Procedure: Rat Pharmacokinetic Determination of Representative Compounds of the Present Disclosure
as §2, with “SD rats” for “The ICR mice”, “rats” for “mice”, “the intravenous” for “intragastric”, “intragastric” for “intravenous”, “compounds” for “compound of the present disclosure”
Intragastric administration: An appropriate amount of sample was weighed, and added with 0.1% hydroxyethyl cellulose/0.5% TWEEN®80 to a final volume to give 1 mg/ml solution.
Whole blood was anticoagulated with EDTA-K2 and centrifuged, the supernatant was removed, and the residue was frozen at −20° C. until sample analysis. Plasma samples were analyzed by LC-MS/MS, sample pretreatment was performed using a protein precipitation method, the linear range of sample analysis was 1-2000 ng/ml, and the lowest quantification limit was 1 ng/ml.

[4] = system: Human glioma cell line U87 MG; test: Inhibition of proliferation of the U87 MG cell line (DAPI, In Cell Analyzer); type: cell-based; settings: for IC50: Homo sapiens, U-87 MG, 72 hours incubation, read-out: IC50, proliferation of U87MG Cell Line
Procedure: as §1

[5] = male, ICR, mouse, plasma, po, mice, single intragastric administration, 5 mg/kg, Mean ± SD
[6] = male, ICR, mouse, plasma, mice, single intravenous administration, 2 mg/kg, Mean ± SD
[7] = male, SD, rat, plasma, po, rats, single intragastric administration, 5 mg/kg
[8] = male, rat, plasma, po, rats, single intragastric administration, 5 mg/kg, Mean ± SD
[9] = male, rat, plasma, rats, single intravenous administration, 2 mg/kg, Mean ± SD

SMILES	IC50 [1] [nM]	AUC(0-t) [2, 5] [ng·h/mL]	AUC(0-inf) [2, 5] [ng·h/mL]	AUC(0-t) [2, 6] [ng·h/mL]	AUC(0-inf) [2, 6] [ng·h/mL]	bioavailability ([3]; male, SD, rat, plasma, rats) [%]	AUC(0-inf) [3, 7] [ng·h/mL]	AUC(0-t) [3, 8] [ng·h/mL]	Vd [3, 9] [L/kg]	AUC(0-t) [3, 9] [ng·h/mL]	clearance [3, 9] [mL/min/kg]	MRT [3, 9] [h]	IC50 [4] [nM]	Inhibitory activity on proliferation of the MDA-MB-231 cell line, in words [1]	further results
CCN1CCN(Cc2ccc(Nc3ncc(F)c(-c4cc(F)c5nc(C)n(C(C)C)c5c4)n3)nc2)CC1 [LY2835219, reference compound]	229	756 ± 34	765 ± 34	674 ± 82.1	679 ± 81	87.4	3440	3280 ± 731	6.95 ± 2.43	1500 ± 337	22.4 ± 4.49	3.82 ± 1.44	151		clearance ([2]; male, ICR, mouse, plasma, mice, single intravenous administration, 2 mg/kg, Mean ± SD, read-out: Clearance rate Cl): 49.6 ± 5.72 mL/min/kg
CC1=Nc2c(F)cc(-c3nc(Nc4ccc(C5CCN(C)CC5)cn4)ncc3F)cc2C12CCCC2 [Example 17, 5-Fluoro-4-(7′-fluoro-2′-methylspiro[cyclopentane-1,3′-indol]-5′-yl)-N-(5-(1-methylpiperidin-4-yl)pyridin-2-yl)pyrimidine-2-amino]	110	2130 ± 96.9	2500 ± 387	1140 ± 77.8	1327 ± 4	102	5260	2610 ± 1220	19.4 ± 5.89	1020 ± 239	30 ± 11.1	7.78 ± 1.3	35.4	significant inhibitory activity	bioavailability ([2]; male, ICR, mouse, plasma, oral, mice, intragastric 5 mg/kg vs intravenous 2 mg/kg): 75.1%; Cmax ([2]; male, ICR, mouse, plasma, po, mice, single intragastric administration, 5 mg/kg, Mean ± SD, read-out: Blood concentration Cmax): 134 ± 11.8 ng/mL; half-life [2, 5]: 8.38 ± 3.16 h; MRT [2, 5]: 9.45 ± 1.05 h; Vd ([2]; male, ICR, mouse, plasma, mice, single intravenous administration, 2 mg/kg, Mean ± SD, read-out: Apparent volume of distribution VZ): 19.8 ± 0.81 L/kg; half-life [2, 6]: 9.1 ± 0.26 h; MRT [2, 6]: 7.51 ± 0.28 h; Clearance rate Cl ([2]; mice, single intravenous administration, 2 mg/kg, Mean ± SD): 25.2 ± 1.72 mL/min/kg; Bioavailability and half-life in mice, in words ([2]; relative to LY2835219): higher bioavailability and longer half-life; half-life [3, 7]: 2 h; Cmax ([3]; male, rat, plasma, po, rats, single intragastric administration, 5 mg/kg, Mean ± SD, read-out: Blood concentration Cmax): 188 ± 75 ng/mL; MRT [3, 8]: 10.2 ± 0.27 h; AUC(0-inf) [3, 9]: 1220 ± 456 ng·h/mL; half-life [3, 9]: 8.67 ± 4.98 h; Bioavailability in rats, in words ([3]; relative to LY2835219): higher bioavailability; Inhibitory activity on proliferation of the U87MG cell line, in words ([4]; experimental conclusion): significant inhibitory activity
CCN1CCC(c2ccc(Nc3ncc(F)c(-c4cc(F)c5c(c4)C4(CCCC4)C(C)=N5)n3)nc2)CC1 [Example 12, N-(5-(1-ethylpiperidin-4-yl)pyridin-2-yl)-5-fluoro-4-(7′-fluoro-2′-methylspiro [cyclopentane-1,3′-indol]-5′-yl)pyrimidine-2-amino]	183													significant inhibitory activity	
